Data reported in US20190380937A1, “PROCESS FOR DEPIGMENTING KERATIN MATERIALS USING THIOPYRIDINONE COMPOUNDS” (L'OREAL, priority 2015, published 2019).
Read-outs that look alike come from different tables or passages of the source.

Key:
normal human melanocytes = test: Depigmenting activity (reduction of melanin production) in normal human melanocytes in vitro; format: cell-based; settings: Melanocyte, read-out: IC50 (concentration at which 50% decrease in melanin synthesis is achieved)
Procedure: The measurement of the depigmenting activity (reduction of melanin production) of compounds of formula (I) was carried out by assaying normal human melanocytes in vitro as follows.
First of all, normal human melanocytes are cultured and dispensed into 384 wells. After 24 hours, the culture medium was replaced with a medium containing compounds of formula (I) to be evaluated. The cells were incubated for 72 hours before measuring the final optical density, which measures the amount of melanin produced by the melanocytes. A dose-effect is performed using a wide concentration range of the compounds evaluated. Thus, by making the concentrations and the melanin measurements correspond, it is possible to determine an IC50 in μM: concentration at which 50% decrease in melanin synthesis is achieved. The highest concentration used in the test is 200 μM.

[1] = test system: pigmented reconstructed epidermis; test: Test on pigmented reconstructed epidermis samples (melanin quantified by image analysis); format: cell-based, human; settings: pValue<0.05, control DMSO
Procedure: […] EP 1 878 790). The control is DMSO. The melanin was quantified by image analysis on histological slices after staining with Fontana Masson dye. Each sample of coloured epidermis is photographed over its entire length using a camera connected to a microscope. The melanin is thresholded and the number of melanin pixels is measured in each field using automated image analysis software. A non-parametric statistical test is performed in order to determine the significance of the measurements (Mann-Whitney test).
The pigmented reconstructed epidermis standard study model was published by:
Regnier M, Duval C, Galey J B, Philippe M, Lagrange A, Tuloup R, Schmidt R, Cellular and Molecular Biology, 1999, 45, 7, 969-980: “Keratinocyte-Melanocyte co-cultures and pigmented reconstructed human epidermis: models to study modulation of melanogenesis”.

[2] = Homo sapiens, another campaign, comparison with closest prior art compound of FR 2 968 661
[3] = normal human melanocytes, 72 hours incubation, optical density, highest concentration 200 μM

Q: How did the IC50 (normal human melanocytes; [2]) turn out when `CCOC(=O)CNC(=O)c1ccc[nH]c1=S` [Compound 3, Ethyl N-[(2-thioxo-1,2-dihydropyridin-3-yl)carbonyl]glycinate] was run?
A: 20.8 µM

Q: What about the IC50 (normal human melanocytes; [3]) of the same molecule?
A: 36.8 µM

Q: What about the “depigmenting activity (melanin quantification, Mann-Whitney test)” value (from here on “depigmenting activity”) ([1]; at 300 μM) of the same molecule?
A: Significant depigmenting activity

Q: Which results are given for `CN(CC(=O)O)C(=O)c1ccc[nH]c1=S` [Compound 2, N-methyl-N-[(2-thioxo-1,2-dihydropyridin-3-yl)carbonyl]glycine]?
A: IC50 (normal human melanocytes; [3]): 5.27 µM; depigmenting activity (melanin quantification, Mann-Whitney test) ([1]; at 100 μM): Significant depigmenting activity

Q: How did the IC50 (normal human melanocytes; [3]) turn out when `CCOC(=O)CN(C)C(=O)c1ccc[nH]c1=S` [Compound 4, Ethyl N-methyl-N-[(2-thioxo-1,2-dihydropyridin-3-yl)carbonyl]glycinate] was run?
A: 67.6 µM

Q: And the “depigmenting activity” value ([1]; at 300 μM)?
A: Significant depigmenting activity

Q: For `CCOC(=O)C(C)NC(=O)c1ccc[nH]c1=S` (stereo not shown) [reference compound], which IC50 (normal human melanocytes; [2]) is on record?
A: 37.4 µM

Q: Which IC50 (normal human melanocytes; [3]) does the source give for `O=C(O)CNC(=O)c1ccc[nH]c1=S` [Compound 1, N-[(2-thioxo-1,2-dihydropyridin-3-yl)carbonyl]glycine] here?
A: 11.4 µM

Q: And the “depigmenting activity” value ([1]; at 100 μM)?
A: Significant depigmenting activity
